Results on six compounds are retold here after PubChem BioAssay AID2060329 (Molecular Pharmacology Branch, DTP, NCI, 2025).

The test system of the assay is MCF7 multi-cell spheroids with HUVEC/MSC, viability. Put plainly: Anticancer human tumor MCF7 cell line growth inhibition [IpAb].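 As to all read-outs here: spheroids exposed to agents for seven days before readout.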 Particulars: for viability, T/C: stronger effect = lower value. The method in brief:
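Spheroids of 60% malignant cells, 25% HUVEC and 15% MSC were exposed to targeted agents combined with ipatasertib or abemaciclib. Doses started at or near clinical Cmax (10 microM when unknown) and fell in half-log steps.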

Setting [1] is: curve of first compound, second compound 0.01 µM.
[2] abbreviates: curve of first compound, second compound 0.0316 µM.
[3] abbreviates: curve of first compound, second compound 0.1 µM.
[4] abbreviates: curve of first compound, second compound 0.316 µM.
[5] abbreviates: curve of first compound, second compound 1 µM.
Setting [6] is: second compound 0.01 µM, first compound 0.0316 µM.
Where [7] appears, read: second compound 0.01 µM, first compound 0.1 µM.
Setting [8] is: second compound 0.01 µM, first compound 0.316 µM.
Setting [9] is: second compound 0.01 µM, first compound 1 µM.
[10] abbreviates: second compound 0.01 µM, first compound 3.16 µM.
[11] abbreviates: second compound 0.01 µM, first compound 10 µM.
Where [12] appears, read: second compound 0.0316 µM, first compound 0.0316 µM.
Where [13] appears, read: second compound 0.0316 µM, first compound 0.1 µM.
The mark [14] stands for this setting: second compound 0.0316 µM, first compound 0.316 µM.
The mark [15] stands for this setting: second compound 0.0316 µM, first compound 1 µM.
Where [16] appears, read: second compound 0.0316 µM, first compound 3.16 µM.
Where [17] appears, read: second compound 0.0316 µM, first compound 10 µM.
Where [18] appears, read: second compound 0.1 µM, first compound 0.0316 µM.
Where [19] appears, read: second compound 0.1 µM, first compound 0.1 µM.
[20] abbreviates: second compound 0.1 µM, first compound 0.316 µM.
[21] abbreviates: second compound 0.1 µM, first compound 1 µM.
The mark [22] stands for this setting: second compound 0.1 µM, first compound 3.16 µM.
[23] abbreviates: second compound 0.1 µM, first compound 10 µM.
Where [24] appears, read: second compound 0.316 µM, first compound 0.0316 µM.
[25] abbreviates: second compound 0.316 µM, first compound 0.1 µM.
[26] abbreviates: second compound 0.316 µM, first compound 0.316 µM.
The mark [27] stands for this setting: second compound 0.316 µM, first compound 1 µM.
The mark [28] stands for this setting: second compound 0.316 µM, first compound 3.16 µM.
[29] abbreviates: second compound 0.316 µM, first compound 10 µM.
[30] abbreviates: second compound 1 µM, first compound 0.0316 µM.
[31] abbreviates: second compound 1 µM, first compound 0.1 µM.
[32] abbreviates: second compound 1 µM, first compound 0.316 µM.
Where [33] appears, read: second compound 1 µM, first compound 1 µM.
Where [34] appears, read: second compound 1 µM, first compound 3.16 µM.
The mark [35] stands for this setting: second compound 1 µM, first compound 10 µM.

pIC50: −log10 of the molar value. “And” between values parts separate entries of the source, which are not always exact repeats. Equal values may be shown once.

One may read the pIC50 as the IC50 on a negative log10 scale, so that one unit is a factor of ten. The viability, T/C is the ratio of treated to control. In the case of `C=CCn1c(=O)c2cnc(Nc3ccc(N4CCN(C)CC4)cc3)nc2n1-c1cccc(C(C)(C)O)n1` + CCN1CCN(Cc2ccc(Nc3ncc(F)c(-c4cc(F)c5nc(C)n(C(C)C)c5c4)n3)nc2)CC1, the pIC50 by setting is: under setting [1], 6.31; under setting [2], 6.25; under setting [3], 6.13; under setting [4], 6.02; under setting [5], 6.07. Besides, the viability, T/C reads like this: under setting [6], 94.5%; under setting [7], 90.6%; under setting [8], 60.1%; under setting [9], 32.8%; under setting [10], 25.6%; under setting [11], 25.6%. The viability, T/C is, setting by setting: under setting [12], 91.4%; under setting [13], 87.7%; under setting [14], 63.4%; under setting [15], 36.3%; under setting [16], 25.7%; under setting [17], 23.7%. Further, the viability, T/C is, setting by setting: under setting [18], 113%; under setting [19], 83.5%; under setting [20], 71%; under setting [21], 42.6%; under setting [22], 29%; under setting [23], 36.7%. Further, the viability, T/C was 109% under setting [24]; 109% under setting [25]; 88% under setting [26]; 49% under setting [27]; 37.9% under setting [28]; 36.8% under setting [29]. For the same compound, the viability, T/C runs as follows: under setting [30], 88%; under setting [31], 94%; under setting [32], 87.1%; under setting [33], 43.9%; under setting [34], 41.6%; under setting [35], 42.1%.

As for `Cn1nccc1Nc1nccc(-c2ccn(C(CO)c3ccc(Cl)c(F)c3)c(=O)c2)n1` (configuration not stated) + CCN1CCN(Cc2ccc(Nc3ncc(F)c(-c4cc(F)c5nc(C)n(C(C)C)c5c4)n3)nc2)CC1, the pIC50 by setting is: under setting [1], less than 5.00; under setting [2], less than 5.00; under setting [3], less than 5.00; under setting [4], less than 5.00; under setting [5], less than 5.00. For the same compound, the viability, T/C is 107% under setting [6]; 113% under setting [7]; 115% under setting [8]; 126% under setting [9]; 143% under setting [10]; 104% under setting [11]. The viability, T/C reads like this: under setting [12], 105%; under setting [13], 116%; under setting [14], 128%; under setting [15], 136%; under setting [16], 138%; under setting [17], 62.1%. The viability, T/C is 116% under setting [18]; 129% under setting [19]; 139% under setting [20]; 136% under setting [21]; 139% under setting [22]; 74.8% under setting [23]. In addition, the viability, T/C under setting [24] is 119%; the viability, T/C under setting [25] was 115%; the viability, T/C under setting [26] is 131%; the viability, T/C under setting [27] was 143%; the viability, T/C under setting [28] is 133%; the viability, T/C under setting [29] is 95%. In addition, the viability, T/C is 126% under setting [30]; 125% under setting [31]; 123% under setting [32]; 148% under setting [33]; 145% under setting [34]; 113% under setting [35].

Regarding `Cn1cnc2c(F)c(Nc3ccc(Br)cc3Cl)c(C(=O)NOCCO)cc21` + CC(C)NCC(C(=O)N1CCN(c2ncnc3c2C(C)CC3O)CC1)c1ccc(Cl)cc1, the pIC50 was less than 5.52 under setting [3]; less than 5.52 under setting [4]; 5.85 under setting [5]; more than 8.02 (curve of first compound, second compound 3.16 µM); more than 8.02 (curve of first compound, second compound 10 µM). The viability, T/C reads like this: (second compound 0.1 µM, first compound 0.00949 µM) 87.8%; (second compound 0.1 µM, first compound 0.03 µM) 89.6%; (second compound 0.1 µM, first compound 0.0949 µM) 92.5%; (second compound 0.1 µM, first compound 0.3 µM) 86.2%; (second compound 0.1 µM, first compound 0.949 µM) 95%; (second compound 0.1 µM, first compound 3 µM) 82.5%. For the same compound, the viability, T/C (second compound 0.316 µM, first compound 0.00949 µM) is 80.8%; the viability, T/C (second compound 0.316 µM, first compound 0.03 µM) was 86.2%; the viability, T/C (second compound 0.316 µM, first compound 0.0949 µM) is 89.8%; the viability, T/C (second compound 0.316 µM, first compound 0.3 µM) was 77.9%; the viability, T/C (second compound 0.316 µM, first compound 0.949 µM) was 82.5%; the viability, T/C (second compound 0.316 µM, first compound 3 µM) was 67%. Moreover, the viability, T/C is, setting by setting: (second compound 1 µM, first compound 0.00949 µM) 58.7%; (second compound 1 µM, first compound 0.03 µM) 73.4%; (second compound 1 µM, first compound 0.0949 µM) 67.4%; (second compound 1 µM, first compound 0.3 µM) 50.9%; (second compound 1 µM, first compound 0.949 µM) 54.4%; (second compound 1 µM, first compound 3 µM) 44.7%. For the same compound, the viability, T/C was 43% (second compound 3.16 µM, first compound 0.00949 µM); 48.5% (second compound 3.16 µM, first compound 0.03 µM); 43.5% (second compound 3.16 µM, first compound 0.0949 µM); 38.4% (second compound 3.16 µM, first compound 0.3 µM); 40.8% (second compound 3.16 µM, first compound 0.949 µM); 31.3% (second compound 3.16 µM, first compound 3 µM). The viability, T/C (second compound 10 µM, first compound 0.00949 µM) is 30.7%; the viability, T/C (second compound 10 µM, first compound 0.03 µM) was 41.4%; the viability, T/C (second compound 10 µM, first compound 0.0949 µM) is 37.5%; the viability, T/C (second compound 10 µM, first compound 0.3 µM) was 34.8%; the viability, T/C (second compound 10 µM, first compound 0.949 µM) was 35.5%; the viability, T/C (second compound 10 µM, first compound 3 µM) is 27.5%.

For `CCN1CCN(Cc2ccc(Nc3ncc(F)c(-c4cc(F)c5nc(C)n(C(C)C)c5c4)n3)nc2)CC1`, the viability, T/C runs as follows: (compound 0.01 µM) 97.5% [middle of 13 runs]; (compound 0.0316 µM) 101% [middle of 13 runs]. In addition, the negative logarithm of the IC50 (pIC50) (compound alone, run of 06/01/2021) was less than 6.00.

`Cn1nccc1Nc1nccc(-c2ccn(C(CO)c3ccc(Cl)c(F)c3)c(=O)c2)n1` (configuration not stated): the viability, T/C is 96.3% and 104% (compound 0.0316 µM); 96.2% and 111% (compound 0.1 µM); 116% and 119% (compound 0.316 µM); 129% and 118% (compound 1 µM); 128% and 143% (compound 3.16 µM); 88.5% and 102% (compound 10 µM). The negative-log IC50 (pIC50) (curve of compound) is less than 5.00.

As for `CC1(C)CCC(CN2CCN(c3ccc(C(=O)NS(=O)(=O)c4ccc(NCC5CCOCC5)c([N+](=O)[O-])c4)c(Oc4cnc5[nH]ccc5c4)c3)CC2)=C(c2ccc(Cl)cc2)C1`, the viability, T/C reads like this: (compound 0.0316 µM) 88.4% and 102%; (compound 0.1 µM) 102% and 108%; (compound 0.316 µM) 97.2% and 109%; (compound 1 µM) 94.4% and 98.2%; (compound 3.16 µM) 84.6% and 98.1%; (compound 10 µM) 16.5% and 20.3%. Also, the negative-log IC50 (pIC50) (curve of compound) was 5.25 and 5.19.
